In experiment [1] the target is Myeloid Cell Leukemia 1 (Mcl-1) (Homo sapiens, UniProt Q07820). As to the kind of experiment: Terbium labeled Mcl-1 HTRF binding assay, displacement of Cy5-labeled BIM BH3 peptide. The conditions noted are these: 25 pM Tb-Mcl-1, 8 nM Cy5 Bim peptide, 60 min at room temperature, read-out: Tb-MCL1 Ki. How it is done:
Terbium labeled Myeloid Cell Leukemia 1(Mcl-1) homogeneous time-resolved fluorescence (HTRF) binding assay utilizing the BIM BH3 peptide (H2N—(C/Cy5Mal) WIAQELRRIGDEFN-OH) as the binding partner for Mcl-1.
This assay evaluated inhibition of the BH3 domain: Mcl-1 interaction by measuring the displacement of Cy5-labeled BIM BH3 peptide (H2N—(C/Cy5Mal) WIAQELRRIGDEFN-OH) in the HTRF assay format.
The following assay and stock buffers were prepared for use in the assay: (a) Stock buffer: 10 mM Tris-HCl, pH=7.5+150 mM NaCl, filtered, sterilized, and stored at 4° C.; and (b) 1× assay buffer, where the following ingredients were added fresh to stock buffer: 2 mM dithiothreitol (DTT), 0.0025% Tween-20, 0.1 mg/mL bovine serum albumin (BSA). The 1×Tb-Mcl-1+Cy5 Bim peptide solution was prepared by diluting the protein stock solution using the 1× assay buffer (b) to 25 pM Tb-Mel-1 and 8 nM Cy5 Bim peptide.
Using the Acoustic ECHO, 100 nL of 100× test compound(s) were dispensed into individual wells of a white 384-well Perkin Elmer Proxiplate, for a final compound concentration of 1× and final DMSO concentration of 1%. Inhibitor control and neutral control (NC, 100 nL of 100% DMSO) were stamped into columns 23 and 24 of assay plate, respectively. Into each well of the plate was then dispensed 10 μL of the 1×Tb-Mcl-1+Cy5 Bim peptide solution. The plate was centrifuged with a cover plate at 1000 rpm for 1 minute, then incubated for 60 minutes at room temperature with plates covered.
The TR-FRET signal was read on an BMG PHERAStar FSX MicroPlate Reader at room temperature using the HTRF optic module (HTRF: excitation: 337 nm, light source: laser, emission A: 665 nm, emission B: 620 nm, integration start: 60 μs, integration time: 400 μs).
The BMG PHERAStar FSX MicroPlate Reader was used to measure fluorescence intensity at two emission wavelengths—665 nm and 620 nm—and report relative fluorescence units (RFU) for both emissions, as well as a ratio of the emissions (665 nm/620 nm)*10,000. The RFU values were normalized to percent inhibition as follows:
% inhibition(((NC−IC)−(compound−IC))(NC−IC))*100
where IC (inhibitor control, low signal)=mean signal of 1×Tb-MCl-1+Cy5 Bim peptide+inhibitor control or 100% inhibition of Mcl-1; NC (neutral control, high signal)=mean signal 1×Tb-MCl-1+Cy5 Bim peptide with DMSO only or 0% inhibition An 11-point dose response curve was generated to determine IC50 values (using GenData) based on the following equation:
where Y=% inhibition in the presence of X inhibitor concentration; Top=100% inhibition derived from the IC (mean signal of Mcl-1+inhibitor control); Bottom=0% inhibition derived from the NC (mean signal of Mcl-1+DMSO); Hillslope=Hill coefficient; and IC50=concentration of compound with 50% inhibition in relation to top/neutral control (NC).
Representative compounds of the present invention were tested according to the procedure as described above, with results as listed in the Table below (n.d. means not determined).
For orientation: Time-resolved FRET reads energy transfer from a long-lived donor to a nearby acceptor.

The subject of experiment [2] is MOLP-8 human multiple myeloma cell line. In words: Caspase-Glo 3/7 apoptosis induction assay in MOLP-8 cells. It is filed as cell-based. The conditions noted are these: caspase-3/7 activity, 2 hours at 37° C., averaged over all runs on all batches, read-out: MOLP8 AC50. An excerpt:
MCL-1 is a regulator of apoptosis and is highly over-expressed in tumor cells that escape cell death. The assay evaluates the cellular potency of small-molecule compounds targeting regulators of the apoptosis pathway, primarily MCL-1, Bfl-1, Bcl-2, and other proteins of the Bcl-2 family. Protein-protein inhibitors disrupting the interaction of anti-apoptotic regulators with BH3-domain proteins initiate apoptosis.
The Caspase-Glo® 3/7 Assay is a luminescent assay that measures caspase-3 and −7 activities in purified enzyme preparations or cultures of adherent or suspension cells. The assay provides a proluminescent caspase-3/7 substrate, which contains the tetrapeptide sequence DEVD. This substrate is cleaved to release aminoluciferin, a substrate of luciferase used in the production of light. Addition of the single Caspase-Glo® 3/7 Reagent in an “add-mix-measure” format results in cell lysis, followed by caspase cleavage of the substrate and generation of a “glow-type” luminescent signal.
This assay uses the MOLP-8 human multiple myeloma cell line, which is sensitive to MCL-1 inhibition.
Cell cultures were maintained between 0.2 and 2.0×10^6 cells/mL. The cells were harvested by collection in 50 mL conical tubes. The cells were then pelleted at 500 g for 5 mins before removing supernatant and resuspension in fresh pre-warmed culture medium. The cells were counted and diluted as needed.
The assay reagent was prepared by transferring the buffer solution to the substrate vial and mixing. The solution may be stored for up to 1 week at 4° C. with negligible loss of signal.
Compounds were delivered in assay-ready plates (Proxiplate) and stored at −20° C.
Assays always include 1 reference compound plate containing reference compounds. The plates were spotted with 40 nL of compounds (0.5% DMSO final in cells; serial dilution; 30 μM highest conc. 1/3 dilution, 10 doses, duplicates). The compounds were used at room temperature and 4 μL of pre-warmed media was added to all wells except column 2 and 23. The negative control was prepared by adding 1% DMSO in media. The positive control was prepared by adding the appropriate positive control compound in final concentration of 60 μM in media. The plate was prepared by adding 4 μL negative control to column 23, 4 μL positive control to column 2 and 4 μL cell suspension to all wells in the plate. The plate with cells was then incubated at 37° C. for 2 hours. The assay signal reagent is the Caspase-Glo solution described above, and 8 μL was added to all wells. The plates were then sealed and measured after 30 minutes.
The activity of a test compound was calculated as percent change in apoptosis induction as follows: • LC=median of the Low Control values • =Central Reference in Screener • =DMSO • =[…] • HC=Median of the High Control values • =Scale Reference in Screener • =30 μM of positive control • =100% apoptosis induction
% Effect (AC50)=100−((sample−LC)/(HC−LC))*100
% Control=(sample/HC)*100
% Control min=((sample−LC)/(HC−LC))*100

One may read the Ki as a dissociation constant, usually derived from enzyme kinetics or from competition with a known ligand. A word on the AC50: it is the concentration giving half of the maximal activity seen.

Chain of Myeloid Cell Leukemia 1 (Mcl-1) (Q07820 whole entry): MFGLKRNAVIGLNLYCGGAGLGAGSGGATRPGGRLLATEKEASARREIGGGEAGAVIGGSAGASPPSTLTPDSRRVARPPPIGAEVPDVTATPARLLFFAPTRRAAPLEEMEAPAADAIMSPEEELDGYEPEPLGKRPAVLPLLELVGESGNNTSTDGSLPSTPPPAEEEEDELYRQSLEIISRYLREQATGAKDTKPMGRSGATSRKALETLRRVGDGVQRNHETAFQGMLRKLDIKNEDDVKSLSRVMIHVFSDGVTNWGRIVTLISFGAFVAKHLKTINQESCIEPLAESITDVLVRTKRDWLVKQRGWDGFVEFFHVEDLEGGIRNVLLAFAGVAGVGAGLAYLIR

Turning to `C[C@@H]1[C@@H](C)C/C=C/[C@@H](C(=O)N2CCOCC2)N2CC[C@H]2CN2C[C@@]3(CCCc4cc(Cl)ccc43)COc3ccc(cc32)C(=O)NS1(=O)=O` [Compound 9], in experiment [1], the Ki was 0.196 nM. The AC50 in experiment [2] was found to be 660 nM.

As for `C[C@@H]1[C@@H](C)C/C=C/[C@H](C(=O)N(C)C)N2CCC[C@H]2CN2C[C@@]3(CCCc4cc(Cl)ccc43)COc3ccc(cc32)C(=O)NS1(=O)=O` [Compound 4], in experiment [1], the Ki stood at 0.142 nM. Further, in experiment [2], the concentration at half-maximal activity (AC50) amounted to 180 nM.

For the compound `C[C@@H]1[C@@H](C)C/C=C/[C@H](C(=O)N2CCOCC2)N2CC[C@H]2CN2C[C@@]3(CCCc4cc(Cl)ccc43)COc3ccc(cc32)C(=O)NS1(=O)=O` [Compound 8], the Ki in experiment [1] is 0.705 nM. The AC50 in experiment [2] amounted to 340 nM.

As for `COCCN(CCOC)C(=O)[C@H]1/C=C/C[C@H](C)[C@@H](C)S(=O)(=O)NC(=O)c2ccc3c(c2)N(C[C@@H]2CCCN21)C[C@@]1(CCCc2cc(Cl)ccc21)CO3` [Compound 1], in experiment [1], the inhibition constant (Ki) worked out at 0.03 nM. In experiment [2], the concentration at half-maximal activity (AC50) came to 56 nM.

Consider `C[C@@H]1[C@@H](C)C/C=C/[C@H](C(=O)N(C)CC2CCOCC2)N2CCC[C@H]2CN2C[C@@]3(CCCc4cc(Cl)ccc43)COc3ccc(cc32)C(=O)NS1(=O)=O` [Compound 3], for which, in experiment [1], the Ki amounted to 0.027 nM. In addition, the concentration at half-maximal activity (AC50) in experiment [2] came to 81 nM.

Regarding `CC1CC=CC(C(=O)N(C)CCN2CCOCC2)N2CCCC2CN2CC3(CCCc4cc(Cl)ccc43)COc3ccc(cc32)C(=O)NS(=O)(=O)C1C` (centres unmarked) [Compound 5], in experiment [1], the Ki was 0.024 nM. The AC50 in experiment [2] amounted to 180 nM.

In the case of `C[C@@H]1[C@@H](C)C/C=C/[C@H](C(=O)N(C)CCC2CCOCC2)N2CCC[C@H]2CN2C[C@@]3(CCCc4cc(Cl)ccc43)COc3ccc(cc32)C(=O)NS1(=O)=O` [Compound 2], the Ki in experiment [1] was 0.058 nM. The AC50 in experiment [2] came out at 130 nM.

With `C[C@@H]1[C@@H](C)C/C=C/[C@@H](C(=O)N2CCOCC2)N2CCC[C@H]2CN2C[C@@]3(CCCc4cc(Cl)ccc43)COc3ccc(cc32)C(=O)NS1(=O)=O` [Compound 6], the AC50 in experiment [2] amounted to 1950 nM.

Take `C[C@@H]1[C@@H](C)C/C=C/[C@H](C(=O)N2CCOCC2)N2CCC[C@H]2CN2C[C@@]3(CCCc4cc(Cl)ccc43)COc3ccc(cc32)C(=O)NS1(=O)=O` [Compound 7]: in experiment [1], the Ki amounted to 0.089 nM. For the same compound, the AC50 in experiment [2] was 360 nM.

These data come from US20250051359A1, “MACROCYCLIC 2-AMINO-BUT-3-ENAMIDES AS INHIBITORS OF MCL-1” (JANSSEN PHARMACEUTICA NV, priority 2021, published 2025).
